# Where “and” joins values, the source holds several entries; their conditions need not be identical. Equal values may be shown once.
# System: 3T3-L1 adipocytes
# Assay: [3H]-2-deoxy-glucose uptake by adipocytes
# Type: cell-based, Murine
# Experimental: To determine if one mechanism for glyceollins to improve the oral glucose challenge in a prediabetic model is by increasing the glucose uptake by fat, glyceollin pharmacology was studied in 3T3-L1 cells. Murine preadipocytes (Zen-Bio Inc.) were cultured using PM-1-L1 medium (Zen-Bio Inc.) containing Dulbecco's modified Eagle's medium (DMEM)/Ham's F-10 medium (1:1, v/v), HEPES 15 mM (pH 7.4), 10% (v/v) fetal bovine serum, penicillin (100 U/ml), streptomvcin ([…]), and amphotericin B (0.25 μg/ml) in a humidified atmosphere (5% CO2/95% air). After 3-4 days, confluent cells were placed in differentiation medium (DM-2-L1, Zen-Bio Inc.) containing DMEM/Ham's F-10 medium (1:1, v/v), HEPES 15 mM (pH 7.4), 3% (v/v) fetal bovine serum, biotin ([…]), pantothenate (17 μM), human insulin (100 nM), dexamethasone (1 μM), penicillin (100 U/ml), streptomycin (100 μg/ml), amphotericin B (0.25 μg/ml), isobutylmethylxanthine ([…]) and PPARγ agonist (10 μM) and further incubated in the humidified atmosphere for 3 days. […]
# Adipocytes were rinsed in sterile, fresh KRH buffer (HEPES pH=7.4, 1 mM CaCl2, 1.2 mM MgSO4, 1 mM KH2PO4, 1.4 mM KCl, […], 130 mM NaCl), and then preincubated for 24 h in KRH buffer. […] The vials were mixed and counted for 10 min in an Applied Biosystems 1100 liquid scintillation counter using the factory preset window to detect tritium.
substance,measurement,setting,value
insulin,maximal stimulation relative to basal glucose uptake,0.3 nM-300 nM insulin,about 3 times
same,EC50,"insulin 30 min at 37° C., then 10 min [3H]-2-deoxy-glucose, read-out: EC50 of insulin-mediated glucose uptake",1.9 nM and 1.92 nM
